According to patent US20240100081A1, “COMPOSITIONS AND METHODS FOR TREATING AGE-RELATED MACULAR DEGENERATION AND GEOGRAPHIC ATROPHY” (University of Virginia Patent Foundation, priority 2017, published 2024):

Columns and labels:
IL-18 = IL-18 secretion ELISA, mouse RPE cells; type: cell-based; settings: Casp11−/− and Mb21d1−/− mouse RPE cells; LPS-primed, MSU 250 μg/ml
Description: Secreted human and mouse interferon-β and IL-18 in the media were detected using the ELISA kits (mouse IFN-β, R&D Systems Cat #42400-1; mouse IL-18, R&D Systems Cat #7625; human IFN-β, R&D Systems Cat #41410; human IL-18, R&D systems Cat #DY318-05) according to the manufacturer's instructions. Primary mouse cells cultured as above. WT, Gsdmd^−/−, Casp11^−/−, and Mb21d1^−/− mouse RPE cells were seeded at a density of 250,000 cells/well in a 12-well plate. When confluency reached 60-70%, cells were transfected with 20 pmol of in vitro transcribed Alu RNA or mock using Lipofectamine 2000 reagent (Life Technologies, Carlsbad, CA) following the manufacturer protocol. Media was collected to detect secreted cytokine content at 8 to 24 h post-transfection. For examining the induction of IL-18 secretion by monosodium urate (MSU) crystals (Invivogen Cat #tlrl-msu), mouse RPE cells were primed with LPS (500 ng/ml) for 6 h and exposed to MSU (250 μg/ml) for 16 h, and media were collected to detect secreted cytokine.

RPE [1] = settings: earlier demonstration (refs 2, 21); cited from earlier work
caspase-1 = assay: Caspase-1 activation (p20) immunoblot in human RPE cells; type: cell-based; settings: lentiviral shRNA
Description: (§1) Cell and tissue lysates prepared in RIPA buffer where homogenized by sonication. Protein concentration was determined using Pierce BCA Protein Assay Kit (Thermo Fisher Scientific Inc.). Equal quantity of protein (10-50 μg) prepared in Laemmli buffer were resolved by SDS-PAGE on NOVEX® Tris-Glycine Gels (Invitrogen), and transferred onto Immobilon-FL PVDF membranes (Millipore). The transferred membranes were blocked in ODYSSEY® Blocking Buffer (PBS) or 5% nonfat dry skim milk for 1 hour at RT and then incubated with primary antibody at 4° C. overnight. The immunoreactive bands were visualized with help of species specific secondary antibodies conjugated with IRDYE® or HRP. The blot image were either captured on ODYSSEY® imaging systems or on an autoradiography film. […]
Lentivirus articles were either produced by the University of Kentucky Viral Production Core facilities or in house. […] Knockdown of the target proteins was determined by immunoblotting.

STAT2 = STAT2 phosphorylation immunoblot, human RPE cells; type: cell-based; settings: lentiviral shRNA
Description: as §1

IFNB mRNA = IFNB mRNA real-time PCR, human RPE cells; type: cell-based; settings: lentiviral shRNA
Description: Real-time PCR Total RNA purified from cell using Trizol reagent (Invitrogen) following manufacturer's recommendation was DNase treated and reverse transcribed using […]® Reverse Transcription kit (QIAGEN). The RT products (cDNA) were amplified by real-time quantitative PCR (Applied Biosystems 7900 HT Fast Real-Time PCR system) with Power SYBR green Master Mix. Relative gene expression was determined by 2^−ΔΔCt t method using 18S rRNA or GAPDH as internal control. Primers were used as described in the provisional patent application from which this application depends and as in Kerur et al., 2018, Nature, the publication resulting from the data in the provisional application. The primers were for human IFNB1, CASP4, DICER, cGAS, 18s rRNA, mitochondrial DNA, GAPDH, and GSDMD, MIP1α, IL6, IL8, and mouse Ifnb1, Gapdh, 18s rRNA, and mitochondrial DNA.
Lentivirus articles were either produced by the University of Kentucky Viral Production Core facilities or in house. Lentivirus vector plasmids expressing scrambled sequences or shRNA sequences targeting human caspase-4 and cGAS were purchased (MISSION®shRNA, Sigma-Aldrich) to produce lentiviral particles. Human RPE cells at passage 3 were incubated with lentiviral particles at multiplicity of infection (MOI) of 5 overnight in regular growth media containing polybrene (4 μg/ml). […] Knockdown of the target proteins was determined by immunoblotting.

caspase-4 = assay: Caspase-4 activation (p30) immunoblot in human RPE cells; type: cell-based; settings: lentiviral shRNA
Description: as §1

cGAS = molecular target: T1, cGAS (Mus musculus, UniProt Q8C6L5); assay: cGAS-mtDNA interaction immunoprecipitation assay (HA-cGAS MEFs); type: cell-based; settings: HA-cGAS reconstituted Mb21d1−/− MEFs
T1 construct: expressed in transfected cells
Description: Immortalized cGAS^−/− mouse embryonic fibroblasts (MEF) reconstituted with HA-tagged mouse cGAS (HA-cGAS) were described earlier^28. Interaction between mtDNA and cGAS was monitored using Express Chromatin Immunoprecipitation Kit (Active Motif, CHIP-IT® Express, cat #53008). Briefly mock, Alu RNA, poly I: C or plasmid DNA (pUC19) transfected HA-cGAS reconstituted cGAS^−/− MEFs were fixed with 1% formaldehyde per manufacturer's instructions. The cells were then lysed by sonication in the shearing buffer, centrifuged for 10 min at 18,000 g in a 4° C. microfuge. The supernatant containing the cell lysate was collected and cGAS was immunoprecipitated from each sample using anti-HA tag antibody (Abcam, cat #ab9110). DNA in the IP was eluted, reverse crosslinked and purified using Chromatin IP DNA Purification Kit (Active Motif, cat #58002). Purified DNA was analyzed by qPCR using mouse mtDNA specific primer pairs.

RPE [2] = assay: RPE flat mount annexin V/PI staining in mice; settings: Alu RNA-treated Gsdmd−/− mice
RPE [3] = assay: Alu-induced RPE degeneration in mice (subretinal injection; fundus photography, ZO-1 flat mounts); type: in vivo, mouse; settings: Gsdmd−/− mice
Description: Alu-mediated RPE degeneration was induced by exposing mice to Alu RNA as previously described^14-18. Seven days later, RPE health was assessed by fundus photography and immunofluorescence staining of zonula occludens-1 (ZO-1) on RPE flat mounts (whole mount of posterior eye cup containing RPE and choroid layers). Mouse RPE and choroid flat mounts were fixed with 4% paraformaldehyde or 100% methanol, stained with rabbit polyclonal antibodies against mouse ZO-1 (1:100, Invitrogen), and visualized with Alexa-594 (Invitrogen). All images were obtained by microscopy (model SP-5, Leica; or Axio Observer Z1, Zeiss). Imaging was performed by an operator masked to the group assignments.
Binary Assignment: Healthy RPE cells form a polygonal tessellation with a principally hexagonal “honeycomb” formation. RPE degeneration was assessed as a disruption of this uniformity of this polygonal sheet. Thus, RPE health was assessed as the presence or absence of morphological disruption in RPE flat mounts by two independent raters who were masked to the group assignments. […] Inter-rater reliability was measured by agreement on assignments, Pearson coefficient of determination, and Fleiss κ. […]
Cellular Morphometry: Quantifying cellular morphometry for hexagonally packed cells was performed in semi-automated fashion by three masked graders by adapting our previous analysis of corneal endothelial cell density^19. […]

T1 sequence (Q8C6L5 whole entry): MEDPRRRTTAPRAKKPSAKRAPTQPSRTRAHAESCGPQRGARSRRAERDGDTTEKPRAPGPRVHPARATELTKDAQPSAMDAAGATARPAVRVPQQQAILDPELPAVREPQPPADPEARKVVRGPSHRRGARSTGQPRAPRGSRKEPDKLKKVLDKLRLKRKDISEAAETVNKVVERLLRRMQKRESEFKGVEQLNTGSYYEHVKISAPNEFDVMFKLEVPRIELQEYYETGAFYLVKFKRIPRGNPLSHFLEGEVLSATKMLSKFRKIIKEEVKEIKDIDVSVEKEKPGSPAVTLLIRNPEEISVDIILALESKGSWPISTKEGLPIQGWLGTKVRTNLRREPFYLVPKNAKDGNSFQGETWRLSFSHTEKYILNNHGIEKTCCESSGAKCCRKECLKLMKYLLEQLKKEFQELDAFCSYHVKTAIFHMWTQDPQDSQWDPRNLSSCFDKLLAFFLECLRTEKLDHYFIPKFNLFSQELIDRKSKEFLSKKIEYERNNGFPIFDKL

Compound: O=c1[nH]c(=O)c2[nH]c([O-])nc2[nH]1.[Na+] [MSU, monosodium urate]
- IL-18 secretion (IL-18): unaffected

Compound: NCC(=O)O [glycine]
- effect on Alu RNA-induced RPE degeneration (RPE [1]): neither necrostatin-1, an inhibitor of primary necrosis^39, nor glycine, an inhibitor of pyroptosis^40, blocks

Compound: CN1C(=O)C(Cc2c[nH]c3ccccc23)NC1=S (stereo not shown) [necrostatin-1]
- effect on Alu RNA-induced RPE degeneration (RPE [1]): neither necrostatin-1, an inhibitor of primary necrosis^39, nor glycine, an inhibitor of pyroptosis^40, blocks

Compound: cGAS shRNA: shRNA against cGAS, Sigma-Aldrich TRCN0000150010, SEQ ID NO: 15 (guide CCGGCCTGCTGTAACACTTCTTATTCTCGAGAATAAGAAGTGTTACAGCAGGTTTTTTG; listed as Homo sapiens)
- effect on Alu RNA-induced activation of caspase-1 (p20 subunit) (caspase-1): suppressed
- effect on Alu RNA-induced phosphorylation of STAT2 (STAT2): suppressed
- effect on DICER1 AS-induced IFNB mRNA (IFNB mRNA): markedly depressed
- effect on Alu RNA-induced activation of caspase-4 (p30 subunit) (caspase-4): suppressed

Compound: poly(I:C)
- enrichment of mtDNA in cGAS immunoprecipitate (cGAS): not

Compound: recIL-18: recombinant mature IL-18 (MBL Cat #B002-5)
- annexin-V / PI staining of RPE flat mounts (RPE [2]): numerous annexin-V^+ PI^− cells
- resistance to Alu RNA-induced RPE degeneration (RPE [3]): overcome
